Drawing on patent US20220295791A1, “METHODS FOR VIRAL INACTIVATION BY ENVIRONMENTALLY COMPATIBLE DETERGENTS” (Eli Lilly and Company, priority 2019, published 2022), this text covers XMuLV inactivation and enveloped viral inactivation for 2 compounds.

One experiment relates to XMuLV. In kind it is cell-based, Xenotropic Murine Leukemiavirus.
Experiment [1] relates to enveloped viral inactivation. The conditions noted are these: under a diverse set of experimental conditions; cited from earlier work.

Consider `CC(O)CO` (centres unmarked) [monopropylene glycol], for which the XMuLV inactivation result in the experiment on XMuLV is recorded as “not inactivate XMuLV”.

For the compound Triton X-100, in experiment [1], the enveloped viral inactivation result is “greater than 4 logs”.
